Reference: ChEMBL document CHEMBL3120109, “Discovery of Thienoimidazole-Based HCV NS5A Genotype 1a and 1b Inhibitors” (ACS Med Chem Lett, 2014)
pEC50: −log10 of the molar value.

Columns and labels:
[1] = Half life in rat at 3 mg/kg, po; assay type: ADME, organism-based; set-up: dose 3 mg/kg, route oral; settings: in vivo
[2] = Volume of distribution at steady state in rat at 3 mg/kg, iv; assay type: ADME, organism-based; set-up: dose 3 mg/kg, route intravenous; settings: in vivo, read-out: Vdss
[3] = Oral bioavailability in rat at 3 mg/kg; assay type: ADME, organism-based; settings: in vivo
[4] = Half life in rat at 3 mg/kg, iv; assay type: ADME, organism-based; set-up: dose 3 mg/kg, route intravenous; settings: in vivo
Hepatitis C virus [5] = assay: Antiviral activity against Hepatitis C virus genotype 1b infected in human Huh-5.2 cells assessed as decrease in HCV replicon RNA replication after 4 days by luciferase assay; assay type: functional, organism-based, Hepacivirus hominis; settings: Huh-5-2, 96 h
[6] = AUC (0 to 8 hrs) in rat at 3 mg/kg, po; assay type: ADME, organism-based; set-up: time < 8 hr, dose 3 mg/kg, route oral; settings: plasma
Hepatitis C virus [7] = assay: Antiviral activity against Hepatitis C virus genotype 1a infected in W11.8 cells assessed as decrease in NS5A expression in replicon cell after 4 days by luminescence based ELISA; assay type: functional, organism-based, Hepacivirus hominis; settings: subtype 1a, W11.8, 96 h
[8] = Cytotoxicity against human HuhET cells by [3H]thymidine incorporation assay; assay type: cell-based
[9] = Clearance in rat at 3 mg/kg, iv; assay type: ADME, organism-based; set-up: dose 3 mg/kg, route intravenous; settings: in vivo
[10] = Ratio of EC50 for Hepatitis C virus genotype 1a infected in W11.8 cells to EC50 for Hepatitis C virus genotype 1b infected in human Huh-5.2 cells; assay type: functional
Hepatitis C virus [11] = assay: Ratio of EC50 for Hepatitis C virus genotype 1b harboring NS5A Y93H mutant gene to EC50 for Hepatitis C virus genotype 1b harboring wild type NS5A; assay type: functional, Hepacivirus hominis
[12] = Metabolic stability in rat liver microsomes assessed as intact compound level at 5 uM after 1 hr; assay type: ADME; settings: read-out: Stability
Hepatitis C virus [13] = assay: Ratio of EC50 for Hepatitis C virus genotype 1a harboring NS5A Y93H mutant gene to EC50 for Hepatitis C virus genotype 1a harboring wild type NS5A; assay type: functional, Hepacivirus hominis, subtype 1a
Hepatitis C virus [14] = assay: Ratio of EC50 for Hepatitis C virus genotype 1a harboring NS5A M28T mutant gene to EC50 for Hepatitis C virus genotype 1a harboring wild type NS5A; assay type: functional, Hepacivirus hominis, subtype 1a
[15] = Efflux ratio of permeability from basolateral to apical over apical to basolateral side in human Caco2 cells; assay type: ADME, cell-based; settings: Caco-2
Hepatitis C virus [16] = assay: Ratio of EC50 for Hepatitis C virus genotype 1a harboring NS5A Q30R mutant gene to EC50 for Hepatitis C virus genotype 1a harboring wild type NS5A; assay type: functional, Hepacivirus hominis, subtype 1a
[17] = Metabolic stability in human liver microsomes assessed as intact compound level at 5 uM after 1 hr; assay type: ADME; settings: read-out: Stability
Hepatitis C virus [18] = assay: Ratio of EC50 for Hepatitis C virus genotype 1a harboring NS5A Y93C mutant gene to EC50 for Hepatitis C virus genotype 1a harboring wild type NS5A; assay type: functional, Hepacivirus hominis, subtype 1a

Row | Structure (SMILES) | pEC50 (Hepatitis C virus [5]) | pEC50 (Hepatitis C virus [7]) | CC50 [8] [nM] | Ratio EC50 [10] | other results
1 | COC(=O)N[C@H](C(=O)N1C[C@@H](C)C[C@H]1c1nc2cc(/C=C/c3ccc(-c4cc5[nH]c([C@@H]6C[C@H](C)CN6C(=O)[C@@H](NC(=O)OC)C(C)C)nc5s4)cc3)ccc2[nH]1)C(C)C | 11.40 | 10.42 | > 20000 | – | half-life [1]: 5 h; Vd [2]: 2.7 L/kg; bioavailability [3]: 14.1%; half-life [4]: 6.6 h; AUC(0-t) at 8 h [6]: 820 ng·h/mL; clearance [9]: 6 mL/min/kg
2 | COC(=O)N[C@H](C(=O)N1C[C@@H](C)C[C@H]1c1ncc(-c2cc3sc(-c4ccc(-c5cc6[nH]c([C@@H]7C[C@H](C)CN7C(=O)[C@@H](NC(=O)OC)C(C)C)nc6s5)cc4)cc3s2)[nH]1)C(C)C | 10.85 | 10.27 | > 20000 | 3.8 | half-life [1]: 10.8 h; Vd [2]: 2 L/kg; bioavailability [3]: 6.7%; half-life [4]: 5.1 h; AUC(0-t) at 8 h [6]: 460 ng·h/mL; clearance [9]: 5.1 mL/min/kg
3 | COC(=O)N[C@H](C(=O)N1C[C@@H](C)C[C@H]1c1ncc(-c2csc3ccc(-c4ccc(-c5cc6[nH]c([C@@H]7C[C@H](C)CN7C(=O)[C@@H](NC(=O)OC)C(C)C)nc6s5)cc4)cc23)[nH]1)C(C)C | 8.17 | < 7.00 | 16400 | – | –
4 | COC(=O)N[C@H](C(=O)N1C[C@@H](C)C[C@H]1c1ncc(-c2ccc(-c3ccc(-c4cc5[nH]c([C@@H]6C[C@H](C)CN6C(=O)[C@@H](NC(=O)OC)C(C)C)nc5s4)cc3)s2)[nH]1)C(C)C | 11.15 | 10.47 | 18300 | 5 | –
5 | COC(=O)N[C@H](C(=O)N1C[C@@H](C)C[C@H]1c1ncc(C#Cc2ccc(-c3ccc(-c4cc5[nH]c([C@@H]6C[C@H](C)CN6C(=O)[C@@H](NC(=O)OC)C(C)C)nc5s4)cc3)cc2)[nH]1)C(C)C | 11.00 | 8.95 | > 20000 | 112 | –
6 | COC(=O)N[C@H](C(=O)N1C[C@@H](C)C[C@H]1c1ncc(C#Cc2ccc(-c3cc4[nH]c([C@@H]5C[C@H](C)CN5C(=O)[C@@H](NC(=O)OC)C(C)C)nc4s3)cc2)[nH]1)C(C)C | 9.62 | 7.92 | > 20000 | 50 | –
7 | COC(=O)N[C@H](C(=O)N1C[C@@H](C)C[C@H]1c1ncc(-c2ccc(-c3ccc(-c4cc5[nH]c([C@@H]6C[C@H](C)CN6C(=O)[C@@H](NC(=O)OC)C(C)C)nc5s4)cc3)c(F)c2)[nH]1)C(C)C | 10.89 | 9.63 | 3100 | 18 | –
8 | COC(=O)N[C@H](C(=O)N1C[C@@H](C)C[C@H]1c1ncc(-c2ccc(-c3ccc(-c4cc5[nH]c([C@@H]6C[C@H](C)CN6C(=O)[C@@H](NC(=O)OC)C(C)C)nc5s4)cc3)cc2F)[nH]1)C(C)C | 11.52 | 10.15 | > 20000 | – | –
9 | COC(=O)N[C@H](C(=O)N1C[C@@H](C)C[C@H]1c1ncc(-c2ccc(-c3ccc(-c4cc5[nH]c([C@@H]6C[C@H](C)CN6C(=O)[C@@H](NC(=O)OC)C(C)C)nc5s4)cc3)c(C)c2)[nH]1)C(C)C | 11.70 | 10.21 | > 20000 | 31 | –
10 | COC(=O)N[C@H](C(=O)N1C[C@@H](C)C[C@H]1c1ncc(-c2ccc(-c3ccc(-c4cc5[nH]c([C@@H]6C[C@H](C)CN6C(=O)[C@@H](NC(=O)OC)C(C)C)nc5s4)cc3)cc2C)[nH]1)C(C)C | 11.30 | 9.94 | > 20000 | 23 | –
11 | COC(=O)N[C@H](C(=O)N1C[C@@H](C)C[C@H]1c1ncc(-c2ccc(-c3ccc(-c4cc5[nH]c([C@@H]6C[C@H](C)CN6C(=O)[C@@H](NC(=O)OC)C(C)C)nc5s4)cc3)cc2)[nH]1)C(C)C | 11.10 | 10.77 | > 20000 | 2 | Ratio EC50 (Hepatitis C virus [11]): 900; remaining at 1 h, 5 µM [12]: 91%; Ratio EC50 (Hepatitis C virus [13]): >15000; Ratio EC50 (Hepatitis C virus [14]): >500; half-life [1]: 8.3 h; efflux ratio [15]: 2; Vd [2]: 2.4 L/kg; Ratio EC50 (Hepatitis C virus [16]): >500; bioavailability [3]: 25.6%; half-life [4]: 6.1 h; remaining at 1 h, 5 µM [17]: 100%; Ratio EC50 (Hepatitis C virus [18]): >15000; AUC(0-t) at 8 h [6]: 1540 ng·h/mL; clearance [9]: 5.3 mL/min/kg
12 | COC(=O)N[C@H](C(=O)N1C[C@@H](C)C[C@H]1c1ncc(-c2cccc(-c3ccc(-c4cc5[nH]c([C@@H]6C[C@H](C)CN6C(=O)[C@@H](NC(=O)OC)C(C)C)nc5s4)cc3)c2)[nH]1)C(C)C | 11.15 | 8.12 | > 20000 | 1071 | half-life [1]: 5.1 h; Vd [2]: 4.8 L/kg; bioavailability [3]: 16%; half-life [4]: 5.1 h; AUC(0-t) at 8 h [6]: 490 ng·h/mL; clearance [9]: 13.5 mL/min/kg
13 | COC(=O)N[C@H](C(=O)N1C[C@@H](C)C[C@H]1c1nc2cc(-c3ccc(-c4cc5[nH]c([C@@H]6C[C@H](C)CN6C(=O)[C@@H](NC(=O)OC)C(C)C)nc5s4)cc3)ccc2[nH]1)C(C)C | 11.30 | 9.21 | > 20000 | – | –
14 | COC(=O)N[C@H](C(=O)N1C[C@@H](C)C[C@H]1c1nc2cc(-c3ccc(-c4ccc(-c5cc6[nH]c([C@@H]7C[C@H](C)CN7C(=O)[C@@H](NC(=O)OC)C(C)C)nc6s5)cc4)cc3)ccc2[nH]1)C(C)C | 10.62 | 9.21 | > 20000 | – | –
15 | COC(=O)N[C@H](C(=O)N1C[C@@H](C)C[C@H]1c1nc2cc(C#Cc3ccc(-c4cc5[nH]c([C@@H]6C[C@H](C)CN6C(=O)[C@@H](NC(=O)OC)C(C)C)nc5s4)cc3)ccc2[nH]1)C(C)C | 11.40 | 9.75 | > 20000 | – | –
16 | COC(=O)N[C@H](C(=O)N1CCC[C@H]1c1ncc(-c2ccc(-c3ccc(-c4cnc([C@@H]5CCCN5C(=O)[C@@H](NC(=O)OC)C(C)C)[nH]4)cc3)cc2)[nH]1)C(C)C [DACLATASVIR] | – | 10.30 | – | – | –
